Data on ten molecules can be found in patent US8193369B2, “Benzimidazole cannabinoid agonists” (Janssen Pharmaceutica NV, priority 2007, dated 2012).

A short description of this series: CB1 related side-effects: body temperature lowering, LAD. It counts as in vivo. As for the experimental part:
CB1 related undesired side-effects such as lowering of body temperature, flat body posture, and mydriasis were measured for a number of compounds of the present invention and a number of compounds covered by reference WO-2006/048754.
As for `CCS(=O)(=O)c1ccc2c(c1)nc(C(C)(C)C)n2CC1CCN(C(C)=O)CC1` [Co. No. 1], the “LAD (Lowest Acceptable Dose) at which lowering of body temperature was observed in more than half of the treated animals” value was more than 40 mg/kg. The value for `CC(=O)N1CCC(Cn2c(C(C)(C)C)nc3cc(S(=O)(=O)CCCC(F)(F)F)ccc32)CC1` [Co. No. 3] was more than 40 mg/kg; that for `CCS(=O)(=O)c1ccc2c(c1)nc(C(C)(C)C)n2CC1CCOCC1` [Co. No. F, reference compound] was 10 mg/kg; that for `CC(C)(C)c1nc2cc(S(=O)(=O)c3ccncc3)ccc2n1CC1CCOCC1` [Co. No. D, reference compound] was 10 mg/kg. The value for `CC(=O)N1CCC(Cn2c(C(C)(C)C)nc3cc(S(=O)(=O)c4ccncc4)ccc32)CC1` [Co. No. 34] was more than 40 mg/kg; that for `CCS(=O)(=O)c1ccc2c(c1)nc(C(C)(C)C)n2CC1CCS(=O)(=O)CC1` [Co. No. 29] was more than 40 mg/kg; that for `CC(C)(C)c1nc2cc(S(=O)(=O)C3CCCC3)ccc2n1CC1CCOCC1` [Co. No. C, reference compound] was 5 mg/kg. The value for `CCS(=O)(=O)c1ccc2c(c1)nc(CC(C)(C)C)n2CC1CCN(C(C)=O)CC1` [Co. No. 46] was more than 40 mg/kg; that for `CC(C)(C)c1nc2cc(S(=O)(=O)CCCC(F)(F)F)ccc2n1CC1CCOCC1` [Co. No. B, reference compound] was 10 mg/kg. For `CC(=O)N1CCC(Cn2c(C(C)(C)C)nc3cc(S(=O)(=O)C4CCCC4)ccc32)CC1` [Co. No. 35], the “LAD (Lowest Acceptable Dose) at which lowering of body temperature was observed in more than half of the treated animals” value is more than 40 mg/kg.
